From patent US20240252517A1, “MINERALOCORTICOID RECEPTOR ANTAGONISTS FOR THE PREVENTION AND/OR TREATMENT OF A CORONAVIRUS INFECTION” (Imaginatives Group Limited, priority 2021, published 2024)

Tests used:
COVID-19 = conditions: cited from earlier work
endothelial cells = conditions: MR activation; result in words; cited from earlier work

Q: Which “Resorption of pneumonia on day 5 (number of patients)” value (SARS-CoV-2; 120 h) does the source give for `C[C@@H]1C[C@H]2[C@@H]3CCC4=CC(=O)C=C[C@]4(C)[C@@]3(F)[C@@H](O)C[C@]2(C)[C@@]1(O)C(=O)CO` [HIDEX, dexamethasone] here?
A: 15

Q: What about the “Fasting glucose” value (SARS-CoV-2; after 5 d, mean ± SD, baseline HIDEX 5.9 ± 2.0, SPIDEX 6.89 ± 3.22) of the same compound?
A: 11.69 ± 6.21 mmol/L

Q: What about the Breath rate/min (SARS-CoV-2; after 5 d, mean ± SD, baseline HIDEX 24.8 ± 4.6, SPIDEX 24.2 ± 4.1) of the same compound?
A: 18.4 ± 3.1 min⁻¹

Q: And the “CRP” value (SARS-CoV-2; after 5 d, mean ± SD, baseline HIDEX 72.4 ± 61.7, SPIDEX 65.75 ± 50.9)?
A: 28.1 ± 22.9 mg/L

Q: What about the HR/min (SARS-CoV-2; after 5 d, mean ± SD, baseline HIDEX 84.7 ± 10.8, SPIDEX 83.8 ± 11.8) of the same compound?
A: 89.1 ± 10.6 min⁻¹

Q: What about the “BPdiast., mm Hg” value (SARS-CoV-2; after 5 d, mean ± SD, baseline HIDEX 86 ± 8.6, SPIDEX 85.25 ± 12.40) of the same compound?
A: 89.0 ± 10.6 mm Hg

Q: And the “Blood oxygen, %” value (SARS-CoV-2; after 5 d, mean ± SD, baseline HIDEX 91.8 ± 3.6, SPIDEX 91.7 ± 3.3)?
A: 94.1 ± 3.0%

Q: And the “D-dimer” value (SARS-CoV-2; after 5 d, mean ± SD, baseline HIDEX 736.7 ± 680.6, SPIDEX 755.5 ± 606.1)?
A: 574.8 ± 306.4 ng/mL

Q: And the “CRP, mg/l (range in brackets)” value (SARS-CoV-2; after 5 d, range, baseline HIDEX 6.4-204, SPIDEX 10.2-209)?
A: (2.8-83.5) mg/l

Q: And the “D-dimer, ng/ml (range in brackets)” value (SARS-CoV-2; after 5 d, range, baseline HIDEX 85-2500, SPIDEX 145-2500)?
A: (38-2800) ng/ml

Q: What about the “Fasting blood glucose compared to baseline” value (SARS-CoV-2; after 5 d, result in words) of the same compound?
A: significantly elevated

Q: What about the “Loss of smell/taste, % of patients” value (SARS-CoV-2; after 5 days treatment, baseline 85% (spironolactone/low dose dexamethasone), 82.5% (high dose dexamethasone)) of the same compound?
A: 75%

Q: And the “BPsyst., mm Hg” value (SARS-CoV-2; after 5 d of treatment, mean ± SD, baseline HIDEX 139.6 ± 15.5, SPIDEX 137.5 ± 22.5)?
A: 150.1 ± 20.1 mm Hg

Q: And the “Deaths (number of patients)” value (SARS-CoV-2; of 40 patients per group)?
A: 1

Q: And the “Deterioration of the Chest X-ray picture assessed on the 5th day (number of patients)” value (SARS-CoV-2; of 40 patients per group)?
A: 4

Q: For `C[C@]12CCC(=O)C=C1C=C[C@@H]1[C@@H]2CC[C@@]2(C)[C@H]1CC[C@@]21CCC(=O)O1` [canrenone], which Patients requiring ventilation (COVID-19; group B given canrenone, group A 49%) is on record?
A: 20%

Q: What about the Mortality (COVID-19; group B given canrenone, group A conventional treatment 36%) of the same compound?
A: 13%

Q: And the D-Dimer levels (COVID-19; result in words, rose significantly in control group)?
A: fell

Q: For `CC(=O)S[C@@H]1CC2=CC(=O)CC[C@]2(C)[C@H]2CC[C@@]3(C)[C@@H](CC[C@@]34CCC(=O)O4)[C@H]12` [spironolactone], which “Exocytosis of Weibel-Palade bodies / Von Willebrand Factor” value (endothelial cells) is on record?
A: blocked
